Here are results for 19 molecules from ChEMBL document CHEMBL5543078, “Peptidomimetics as potent dual SARS-CoV-2 cathepsin-L and main protease inhibitors: In silico design, synthesis and pharmacological characterization” (Eur J Med Chem, 2024).

Molecules are shown by their SMILES. Non-standard residues stand in square brackets, D forms with d. Residues, ends and D or L forms follow the SMILES beside them. *: point of attachment. AllylGly = C=CC[C@H](N)C(=O)O; Acryloyl = C=CC(=O)*; NHBn = c1ccc(CN*)cc1; ClAc = O=C(CCl)*

This assay has as its system SARS-CoV-2. In words: microbe, parasite or virus in culture. The following applies: Severe acute respiratory syndrome coronavirus 2, RG-2674 (Beta), Vero.

For the molecule `C=CC[C@H](NC(=O)CCl)C(=O)N[C@@H](CC=C)C(=O)N[C@H](CNCc1ccccc1)Cc1c[nH]c2ccccc12`, the response was half-maximal at 2160 nM (EC50). This counts as single-digit micromolar.

With `CC(C)C[C@@H](NC(=O)CCl)C(=O)N[C@@H](Cc1c[nH]c2ccccc12)C(=O)NCc1ccccc1`, the EC50 (commonly the concentration needed to bring the measured effect to its halfway point) came to 70 nM.

In turn, `O=C(CS)N[C@@H](Cc1ccccc1)C(=O)N[C@@H](Cc1c[nH]c2ccccc12)C(=O)NCc1ccccc1` returned an EC50 above 100000 nM.

In turn, `C=CC[C@H](NC(=O)CCl)C(=O)N[C@@H](Cc1c[nH]c2ccccc12)C(=O)NCCN1CCOCC1` registered an EC50 of 5900 nM.

In turn, `CC(C)C[C@H](NC(=O)CCl)C(=O)N[C@H](Cc1c[nH]c2ccccc12)C(=O)NCc1ccccc1` came in with an EC50 of 8930 nM.

On to `CC(C)C[C@@H](C(=O)NCC12CC3CC(CC(C3)C1)C2)N(Cc1ccccc1)C(=O)CCl`, for which the EC50 was above 4000 nM.

For the molecule `CC(C)C[C@H](NC(=O)CCl)C(=O)N[C@@H](Cc1c[nH]c2ccccc12)C(=O)NCc1ccccc1`, the EC50 worked out at 440 nM. This counts as sub-micromolar.

In the case of `C=CC(=O)N[C@@H](CC(C)C)C(=O)N[C@@H](Cc1c[nH]c2ccccc12)C(=O)NCc1ccccc1`, the concentration for a half-maximal effect (EC50) is above 100000 nM.

`C=CC(=O)N[C@@H](Cc1ccccc1)C(=O)N[C@@H](Cc1c[nH]c2ccccc12)C(=O)NCc1ccccc1` (Acryloyl-Phe-Trp-NHBn) returned an EC50 above 20000 nM.

For `O=C(CCl)NCC(=O)N[C@@H](Cc1c[nH]c2ccccc12)C(=O)NCc1ccccc1` (ClAc-Gly-Trp-NHBn), the EC50 was 70 nM.

The molecule `CC(C)C[C@H](NC(=O)CCl)C(=O)N[C@@H](Cc1ccccc1)C(=O)N[C@@H](Cc1c[nH]c2ccccc12)C(=O)NCc1ccccc1` (ClAc-Leu-Phe-Trp-NHBn) registered an EC50 above 20000 nM.

`COC(=O)[C@H](CCC(N)=O)NC(=O)[C@H](Cc1c[nH]c2ccccc12)NC(=O)[C@H](CC(C)C)NC(=O)CCl` (ClAc-Leu-Trp-Gln-OMe): the 50% effective concentration (EC50) is above 100000 nM.

In turn, `O=C(CCl)N[C@@H](Cc1ccccc1)C(=O)N[C@@H](Cc1c[nH]c2ccccc12)C(=O)NCc1ccccc1` (ClAc-Phe-Trp-NHBn) yielded a half-maximal effective concentration (EC50) of 70 nM.

On to `CC(C)C[C@H](NC(=O)[C@H](Cc1c[nH]c2ccccc12)NC(=O)CCl)C(=O)NCc1ccccc1` (ClAc-Trp-Leu-NHBn), for which a half-maximal response (EC50) required 260 nM.

Regarding `COC(=O)[C@H](CC(C)C)NC(=O)[C@H](Cc1c[nH]c2ccccc12)NC(=O)CCl` (ClAc-Trp-Leu-OMe), the EC50 is above 4000 nM.

Take `O=C(CCl)N[C@@H](Cc1ccc(O)cc1)C(=O)N[C@@H](Cc1c[nH]c2ccccc12)C(=O)NCc1ccccc1` (ClAc-Tyr-Trp-NHBn): the EC50 came to 3320 nM. This lies in the single-digit micromolar range.

For the molecule `C=CC[C@H](NC(=O)CCl)C(=O)N[C@@H](Cc1c[nH]c2ccccc12)C(=O)NCc1ccccc1` (ClAc-[AllylGly]-Trp-NHBn), the EC50 was found to be 460 nM.

Consider `CC(C)C(=O)OC[C@H]1O[C@@H](n2ccc(NO)nc2=O)[C@H](O)[C@@H]1O` [MOLNUPIRAVIR], for which a half-maximal effect (EC50) was put at 2810 nM. This EC50 is about 6.1-fold higher than that of the molecule before.

`CCC(CC)COC(=O)[C@H](C)N[P@](=O)(OC[C@H]1O[C@@](C#N)(c2ccc3c(N)ncnn23)[C@H](O)[C@@H]1O)Oc1ccccc1` [REMDESIVIR] yielded a concentration giving a half-maximal response (EC50) of 2400 nM.
